# “Also recorded” adds a separate entry of the source. Marks after values point to notes of the source that are not given here.
# Assays:
# S. mutans UA159 = assay: Gnotobiotic rat model of dental caries (HA5 / HA6 study, Example 2); format: in vivo, Fischer 344 rats infected with S. mutans UA159; set-up: key to Buccal Mean Caries Scores (±SEM) E / Buccal Mean Caries Scores (±SEM) Ds / Buccal Mean Caries Scores (±SEM) Dm / Buccal Mean Caries Scores (±SEM) Dx / Sulcal Mean Caries Scores (± SEM) E / Sulcal Mean Caries Scores (± SEM) Ds / Sulcal Mean Caries Scores (± SEM) Dm / Sulcal Mean Caries Scores (± SEM) Dx / Proximal Mean Caries Scores (± SEM) E / Proximal Mean Caries Scores (± SEM) Ds: Keyes method caries scores, mean ± SEM; settings: for effect on bacterial colonization / reduction in caries scores: 4-week treatment, 100 μM; for CFU/mL BAP: Blood agar plate; for CFU/mL BAP / CFU/mL MS / Buccal Mean Caries Scores (±SEM) Dx / Sulcal Mean Caries Scores (± SEM) Dx / Buccal Mean Caries Scores (±SEM) Dm / Sulcal Mean Caries Scores (± SEM) Dm / Buccal Mean Caries Scores (±SEM) Ds / Proximal Mean Caries Scores (± SEM) Ds / Sulcal Mean Caries Scores (± SEM) Ds / Buccal Mean Caries Scores (±SEM) E / Proximal Mean Caries Scores (± SEM) E / Sulcal Mean Caries Scores (± SEM) E: 100 μM (NaF 250 ppm); for CFU/mL MS: Mitis-Salivarius agar; for Buccal Mean Caries Scores (±SEM) Dx / Sulcal Mean Caries Scores (± SEM) Dx: dentinal extensive; for Buccal Mean Caries Scores (±SEM) Dx / Sulcal Mean Caries Scores (± SEM) Dx / Buccal Mean Caries Scores (±SEM) Dm / Sulcal Mean Caries Scores (± SEM) Dm / Buccal Mean Caries Scores (±SEM) Ds / Proximal Mean Caries Scores (± SEM) Ds / Sulcal Mean Caries Scores (± SEM) Ds / Buccal Mean Caries Scores (±SEM) E / Proximal Mean Caries Scores (± SEM) E / Sulcal Mean Caries Scores (± SEM) E: twice daily, 4 weeks, n = 5; for Buccal Mean Caries Scores (±SEM) Dm / Sulcal Mean Caries Scores (± SEM) Dm: dentinal moderate; for Buccal Mean Caries Scores (±SEM) Ds / Proximal Mean Caries Scores (± SEM) Ds / Sulcal Mean Caries Scores (± SEM) Ds: dentinal slight; for Buccal Mean Caries Scores (±SEM) E / Proximal Mean Caries Scores (± SEM) E / Sulcal Mean Caries Scores (± SEM) E: enamel
# Description: To understand how these compounds affect the residential bacterial community, we conducted an in vivo evaluation of both HA5 and HA6 and compared to the untreated and NaF-treated rats using a well-established gnotobiotic rat model of dental caries^[50-54]. Treatment groups used in this study were inhibitor HA5 (100 μM), inhibitor HA6 (100 μM), and vehicle. A UA159 infection only group served as a negative control and a NaF (250 ppm) served as a positive control.
# All rats from the experimental groups and from the control groups were colonized with S. mutans UA159. […] The effect of the treatment on dentinal moderate (Dm) and dentinal extensive (Dx) scores in the proximal area were not recorded as there were no observable caries lesions in both control and the treated groups. The observed reductions in caries scores by HA5 or HA6 were slightly lower than the positive control NaF treatment. However, it should be noted that the concentration of NaF (250 ppm=5.95 mM) is about 59-fold higher than the inhibitor treatment dose of 100 μM.
# (§1) We used Fischer 344 rats that were bred and maintained in trexler isolators for this experiment. Male and female rat pups were removed from isolators at 20 days of age and randomly assigned into treatment groups of 5 rats/group in cages with filter tops. Rats were then infected with S. mutans UA159 strain by oral swabbing daily for four consecutive days with a fresh overnight culture of S. mutans UA159. Rats were provided with caries promoting Teklad Diet 305 containing […] (Harlan Laboratories, Inc., Indianapolis, IN) and sterile drinking water ad libitum. Oral swabs were taken 5 days post-infection and plated on Todd Hewitt (TH) agar plates and incubated at 37° C. in an environment of 5% CO2 in the air to confirm colonization. Rats were weighed at weaning and then weekly throughout the experiment. One-week post-infection, the molars of the rats were brushed twice daily for 4 weeks with the test compounds using camel-hair brushes. Four treatment groups used in this study were: 1) HA5 (100 μM); 2) […] (100 μM); 3) NaF (250 ppm); and 4) infected untreated rats. Drinking water was withheld for 60 min following each treatment with the compound. Animals were weighed at weaning and at the termination of the experiment. On day 60, the rats were sacrificed using CO2 followed by cervical dislocation or bilateral thoracotomy. The mandibles were surgically removed and cleaned of excess tissue to assess the level of bacteria present and the extent of caries formation. The right mandible from each rat was placed in a tube containing phosphate buffer (3 mL), placed on ice and sonicated (10 sec) to release bacteria from the molars. Each sample was serially diluted, plated on blood (BAP) and mitis-salivarius (MS) agar plates and incubated in an environment of 5% CO2 in air at 37° C. to quantify the level of total bacteria and S. mutans present in the plaque. The right and left mandibles from each rat were then placed in 95% ethanol for 24 h. The mandibles will be cleaned and stained overnight with murexide solution. After drying, the mandibles were sectioned and scored for caries activity using the Keyes method Caries scores were recorded for the buccal, sulcal and proximal molar surfaces individually so that differences among the surfaces can be distinguished. Statistical significance in the mean caries scores, colony-forming units (CFU)/mandible and body weights between groups of rats were determined by one-way analysis of variance (ANOVA) with the Tukey-Kramer multiple comparison test using the InStat program (GraphPad Prism 10.0.2.). When determining the statistical significance between the two groups, an unpaired t-test was applied. Differences between groups were considered significant at a P-value<0.05.
# rat oral microbiome = assay: Rat oral microbiome (16S rRNA gene sequencing); format: in vivo, Fischer 344 rats; settings: for overall effect on rat oral microbiome / oral microbiome composition, phylum level: 2-week and 4-week treatment; for oral microbiome composition, phylum level / oral microbiome composition, family level within Firmicutes: 100 μM; for oral microbiome composition, family level within Firmicutes: 4-week treatment; for beta diversity (Bray-Curtis, PERMANOVA): P-value>0.05 vs native community
# Description: During this study, rat oral microbiome samples were collected from individual rats (n=5) at the following time points: before the experiment (Native), after inoculation of S. mutans and the start of a caries-promoting diet (Sm+CPD), after two weeks of treatment with the compound (2-week), and at the end of the study (END). The microbiota between the groups at different time points was analyzed for oral bacterial composition and abundance. Oral swabs collected before and after interventions with these compounds were analyzed using the 16s rRNA gene sequencing method. Both ‘within’ (alpha diversity) and ‘between’ (beta diversity) sample diversities were calculated over time for each treatment group using MicrobiomeAnalyst 2.0^[55].
# as §1
# In addition to recording buccal, sulcal and proximal molar surface caries scores and colony-forming units (CFU)/mandible and body weights between groups of rats as described above, plaque samples from rats treated or untreated were collected and DNA was extracted from each sample and used for PCR amplification of ~430 bp amplicons of 16S ribosomal DNA hypervariable regions V3 and V4, Illumina adaptors, and molecular barcodes as described^[66]. […]
# [1] = Body weight of animals, HA5 / HA6 study; format: in vivo, Fischer 344 rats; settings: for Weight: 100 μM (NaF 250 ppm); for weight loss: 4-week treatment, 100 μM
# Text: as §1
smiles,measurement,setting,value
"O=C1/C(=C/c2cc(O)c(O)cc2O)Oc2ccccc21 [HA5, 2-[(2′,4′,5′-Trihydroxyphenyl)methylidene]-2,3-dihydro-1-benzofuran-3-one]",effect on bacterial colonization,S. mutans UA159,did not affect bacterial colonization significantly
same,reduction in caries scores,S. mutans UA159,significant reductions in buccal caries scores; also recorded: can significantly reduce the caries scores in vivo
same,CFU/mL BAP,S. mutans UA159,3.9 ± 1.4 CFU/mL (×10^5)
same,CFU/mL MS,S. mutans UA159,2.2 ± 0.8 CFU/mL (×10^5)
same,Buccal Mean Caries Scores (±SEM) Dx,S. mutans UA159,2.2 ± 0.7
same,Sulcal Mean Caries Scores (± SEM) Dx,S. mutans UA159,1.0 ± 0.3
same,Buccal Mean Caries Scores (±SEM) Dm,S. mutans UA159,3.6 ± 0.4
same,Sulcal Mean Caries Scores (± SEM) Dm,S. mutans UA159,4.6 ± 0.2
same,Buccal Mean Caries Scores (±SEM) Ds,S. mutans UA159,6.6 ± 0.5
same,Proximal Mean Caries Scores (± SEM) Ds,S. mutans UA159,0.0 ± 0.0
same,Sulcal Mean Caries Scores (± SEM) Ds,S. mutans UA159,11.2 ± 0.6
same,Buccal Mean Caries Scores (±SEM) E,S. mutans UA159,7.8 ± 0.4
same,Proximal Mean Caries Scores (± SEM) E,S. mutans UA159,1.0 ± 0.3
same,Sulcal Mean Caries Scores (± SEM) E,S. mutans UA159,16.4 ± 2.2
same,overall effect on rat oral microbiome,rat oral microbiome,without affecting the rat oral microbiome; also recorded: without perturbing the overall rat oral microbiome significantly; also recorded: do not perturb oral microbiome significantly
same,"oral microbiome composition, phylum level",rat oral microbiome,did not perturb the overall rat oral microbiome at phylum levels significantly
same,"oral microbiome composition, family level within Firmicutes",rat oral microbiome,did not perturb the overall rat oral microbiome significantly within this phylum
same,"beta diversity (Bray-Curtis, PERMANOVA)",rat oral microbiome,without any significant deviations
same,Weight,[1],156 ± 16 g
same,weight loss,[1],did not experience significant weight loss
"O=C1/C(=C/c2cc(O)c(O)c(O)c2)Oc2ccccc21 [HA6, 2-[(3′,4′,5′-Trihydroxyphenyl)methylidene]-2,3-dihydro-1-benzofuran-3-one]",effect on bacterial colonization,S. mutans UA159,did not affect bacterial colonization significantly
same,reduction in caries scores,S. mutans UA159,significant reductions in buccal caries scores; also recorded: can significantly reduce the caries scores in vivo
same,CFU/mL BAP,S. mutans UA159,1.9 ± 0.5 CFU/mL (×10^5)
same,CFU/mL MS,S. mutans UA159,1.3 ± 0.4 CFU/mL (×10^5)
same,Buccal Mean Caries Scores (±SEM) Dx,S. mutans UA159,1.2 ± 0.5
same,Sulcal Mean Caries Scores (± SEM) Dx,S. mutans UA159,1.6 ± 0.4
same,Buccal Mean Caries Scores (±SEM) Dm,S. mutans UA159,4.0 ± 0.7
same,Sulcal Mean Caries Scores (± SEM) Dm,S. mutans UA159,6.4 ± 0.4
same,Buccal Mean Caries Scores (±SEM) Ds,S. mutans UA159,6.8 ± 0.5
same,Proximal Mean Caries Scores (± SEM) Ds,S. mutans UA159,0.0 ± 0.0
same,Sulcal Mean Caries Scores (± SEM) Ds,S. mutans UA159,11.2 ± 0.7
same,Buccal Mean Caries Scores (±SEM) E,S. mutans UA159,8.2 ± 0.7
same,Proximal Mean Caries Scores (± SEM) E,S. mutans UA159,1.2 ± 0.8
same,Sulcal Mean Caries Scores (± SEM) E,S. mutans UA159,14.6 ± 0.9
same,overall effect on rat oral microbiome,rat oral microbiome,without affecting the rat oral microbiome; also recorded: without perturbing the overall rat oral microbiome significantly; also recorded: do not perturb oral microbiome significantly
same,"oral microbiome composition, phylum level",rat oral microbiome,did not perturb the overall rat oral microbiome at phylum levels significantly
same,"oral microbiome composition, family level within Firmicutes",rat oral microbiome,did not perturb the overall rat oral microbiome significantly within this phylum
same,"beta diversity (Bray-Curtis, PERMANOVA)",rat oral microbiome,without any significant deviations
same,Weight,[1],165 ± 13 g
same,weight loss,[1],did not experience significant weight loss
"[F-].[Na+] [NaF, reference compound]",CFU/mL BAP,S. mutans UA159,2.8 ± 0.7 CFU/mL (×10^5)
same,CFU/mL MS,S. mutans UA159,1.6 ± 0.6 CFU/mL (×10^5)
same,Buccal Mean Caries Scores (±SEM) Dx,S. mutans UA159,0.4 ± 0.2
same,Sulcal Mean Caries Scores (± SEM) Dx,S. mutans UA159,1.6 ± 0.5
same,Buccal Mean Caries Scores (±SEM) Dm,S. mutans UA159,1.6 ± 0.5
same,Sulcal Mean Caries Scores (± SEM) Dm,S. mutans UA159,5.4 ± 0.4
same,Buccal Mean Caries Scores (±SEM) Ds,S. mutans UA159,3.2 ± 0.9
same,Proximal Mean Caries Scores (± SEM) Ds,S. mutans UA159,0.0 ± 0.0
same,Sulcal Mean Caries Scores (± SEM) Ds,S. mutans UA159,10.4 ± 0.5
same,Buccal Mean Caries Scores (±SEM) E,S. mutans UA159,6.2 ± 0.9
same,Proximal Mean Caries Scores (± SEM) E,S. mutans UA159,0.0 ± 0.0
same,Sulcal Mean Caries Scores (± SEM) E,S. mutans UA159,15.2 ± 0.7
same,oral bacterial community after Sm+CPD (beta diversity),"rat oral microbiome; NaF-treated group, PERMANOVA, P-value>0.001 (so in the source)",the community was shifted
same,abundance of the Streptococcaceae family,"rat oral microbiome; second week, not sustained till the end of the study",increase in the abundance of the Streptococcaceae family
same,Weight,[1],145 ± 12 g

# — US20260315431A1, “NANOMATERIAL ENCAPSULATED BIOFILM INHIBITORS FOR DENTAL CARIES TREATMENT” (THE UAB RESEARCH FOUNDATION, priority 2023, published 2026)
